Laboratory results taken from patent US20080139797A1, “OLIGONUCLEOTIDES CONTAINING HIGH CONCENTRATIONS OF GUANINE MONOMERS” (INTEGRATED DNA TECHNOLOGIES, INC., priority 2006, published 2008).

Test: Solubility of monomers and BTT in 1:1 mixes of acetonitrile and a solvent
Assay type: physicochemical
Protocol: The BTT (MW 192.2., water content ≦75 ppm) was supplied by emp Biotech GmbH (catalog no. NC-0101-1K, charge/lot no. 050904). The dT (MW 744.83), dG^ibu (MW 839.92), dA^bz (MW 857.93), dC^bz (MW 833.93) monomers were supplied by Proligo. The acetonitrile (MeCN) has a viscosity of 0.345 cP at 25° C. and a dipole moment of 3.92 D.
74.5 mg (100 μmol) of dT monomer was weighed out into each of 7 screw-topped 10 ml vials. 84 mg (100 μmol) of dG^ibu monomer was weighed out into each of 7 screw-topped 10 ml vials. 86 mg (100 μmol) of dA^bz monomer was weighed out into each of 7 screw-topped 10 ml vials. 83 mg (100 μmol) of dC^bz monomer was weighed out into each of 7 screw-topped 10 ml vials. 228 mg (1.2 mmol) of BTT was weighed out into each of 7 screw-topped 10 ml vials.
Six different solvent mixes were prepared by mixing 10 ml of dry acetonitrile with 10 ml of one of the 6 different solvents listed above in separate dry bottles under argon.
To each separate vial of T monomer was added 1 ml of one of the 6 different solvent mixes or pure acetonitrile. The vials were quickly closed and agitated gently. This was repeated with the vials of dG, dA and dC monomers.
To each separate vial of BTT was added 4 ml of one of the 6 solvent mixes.

c1ccc(CSc2nnn[nH]2)cc1 [BTT, 5-benzylthiotetrazole]
dissolution of BTT (0.3 M, solvent mixes, all cases except HFIP/MeCN): practically instantaneous
solubility of BTT (at 0.3 M in all 5 mixes (acetonitrile 1:1 with NMP, DMA, TMU, DMSO, sulfolane)): soluble
dissolution of BTT (pure acetonitrile, compared with the solvent mixes, gentle warming required for rapid dissolution): not as fast
